Data: PubChem BioAssay (NCI)
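48-hour exposure; five concentrations; linearly interpolated endpoints. The concentration for 50% growth inhibition is given as GI50. At the TGI there is no net growth.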

Key:
Assay in all cases: NCI tumour cell line growth inhibition, 48 h
786-0 renal = system: 786-0 renal
A498 renal = system: A498 renal
A549 NSCLC = system: A549 NSCLC
ACHN renal = system: ACHN renal
BT-549 breast = system: BT-549 breast
CAKI-1 renal = system: CAKI-1 renal
CCRF-CEM leukemia = system: CCRF-CEM leukemia
COLO 205 colon = system: COLO 205 colon
DU-145 prostate = system: DU-145 prostate
EKVX NSCLC = system: EKVX NSCLC
HCC-2998 colon = system: HCC-2998 colon
HCT-116 colon = system: HCT-116 colon
HCT-15 colon = system: HCT-15 colon
HL-60(TB) leukemia = system: HL-60(TB) leukemia
HOP-62 NSCLC = system: HOP-62 NSCLC
HOP-92 NSCLC = system: HOP-92 NSCLC
HS 578T breast = system: HS 578T breast
HT29 colon = system: HT29 colon
IGROV1 ovarian = system: IGROV1 ovarian
K-562 leukemia = system: K-562 leukemia
KM12 colon = system: KM12 colon
LOX IMVI melanoma = system: LOX IMVI melanoma
M14 melanoma = system: M14 melanoma
MCF7 breast = system: MCF7 breast
MDA-MB-231 breast = system: MDA-MB-231 breast
MDA-MB-435 = system: MDA-MB-435
MOLT-4 leukemia = system: MOLT-4 leukemia
NCI-H226 lung = system: NCI-H226 lung
NCI-H23 lung = system: NCI-H23 lung
NCI-H460 lung = system: NCI-H460 lung
NCI-H522 lung = system: NCI-H522 lung
NCI/ADR-RES ovarian = system: NCI/ADR-RES ovarian
OVCAR-3 ovarian = system: OVCAR-3 ovarian
OVCAR-4 ovarian = system: OVCAR-4 ovarian
OVCAR-5 ovarian = system: OVCAR-5 ovarian
OVCAR-8 ovarian = system: OVCAR-8 ovarian
PC-3 prostate = system: PC-3 prostate
RPMI-8226 leukemia = system: RPMI-8226 leukemia
RXF 393 renal = system: RXF 393 renal
SF-268 CNS = system: SF-268 CNS
SF-295 CNS = system: SF-295 CNS
SF-539 CNS = system: SF-539 CNS
SK-MEL-2 melanoma = system: SK-MEL-2 melanoma
SK-MEL-28 melanoma = system: SK-MEL-28 melanoma
SN12C renal = system: SN12C renal
SNB-19 CNS = system: SNB-19 CNS
SNB-75 CNS = system: SNB-75 CNS
SR leukemia = system: SR leukemia
SW-620 colon = system: SW-620 colon
T-47D breast = system: T-47D breast
TK-10 renal = system: TK-10 renal
U251 CNS = system: U251 CNS
UACC-257 melanoma = system: UACC-257 melanoma
UACC-62 melanoma = system: UACC-62 melanoma
UO-31 renal = system: UO-31 renal

COC1C(O)CC(OC2CC(OC3CC(O[C@@H]4C(=O)c5c(cc6cc(OC7CC(OC8CC(O)C(O)C(C)O8)C(O)C(C)O7)c(C)c(O)c6c5O)CC4[C@H](OC)C(=O)C(C)=O)OC(C)C3O)OC(C)C2O)OC1C (stereo partly specified)
GI50 (786-0 renal): 33.1 nM | TGI (786-0 renal): > 33300 nM | GI50 (A498 renal): 23.3 nM | TGI (A498 renal): 88.4 nM | GI50 (A549 NSCLC): 15.9 nM | TGI (A549 NSCLC): > 33300 nM | GI50 (ACHN renal): 52 nM | TGI (ACHN renal): > 33300 nM | GI50 (BT-549 breast): 10 nM | TGI (BT-549 breast): 33.5 nM | GI50 (CAKI-1 renal): 41.5 nM | TGI (CAKI-1 renal): > 33300 nM | GI50 (CCRF-CEM leukemia): 15.6 nM | TGI (CCRF-CEM leukemia): 673 nM | GI50 (COLO 205 colon): 12.1 nM | TGI (COLO 205 colon): 31.9 nM | GI50 (DU-145 prostate): 15.5 nM | TGI (DU-145 prostate): > 32200 nM | GI50 (EKVX NSCLC): 20.1 nM | TGI (EKVX NSCLC): > 33300 nM | GI50 (HCC-2998 colon): 10.6 nM | TGI (HCC-2998 colon): 40.2 nM | GI50 (HCT-116 colon): 11.2 nM | TGI (HCT-116 colon): > 33300 nM | GI50 (HCT-15 colon): 101 nM | TGI (HCT-15 colon): > 33300 nM | GI50 (HL-60(TB) leukemia): 15.9 nM | TGI (HL-60(TB) leukemia): 59.4 nM | GI50 (HOP-62 NSCLC): 8.95 nM | TGI (HOP-62 NSCLC): 26.9 nM | GI50 (HOP-92 NSCLC): 10.8 nM | TGI (HOP-92 NSCLC): 66.9 nM | GI50 (HS 578T breast): 11.1 nM | TGI (HS 578T breast): > 11300 nM | GI50 (HT29 colon): 12.2 nM | TGI (HT29 colon): 53.5 nM | GI50 (IGROV1 ovarian): 15.9 nM | TGI (IGROV1 ovarian): > 33300 nM | GI50 (K-562 leukemia): 15.8 nM | GI50 (KM12 colon): 10.9 nM | TGI (KM12 colon): > 16000 nM | GI50 (LOX IMVI melanoma): 8.5 nM | TGI (LOX IMVI melanoma): 22.9 nM | GI50 (M14 melanoma): 8.43 nM | TGI (M14 melanoma): 21.4 nM | GI50 (MCF7 breast): 10.8 nM | TGI (MCF7 breast): > 33300 nM | GI50 (MDA-MB-231 breast): 49.5 nM | TGI (MDA-MB-231 breast): > 33300 nM | GI50 (MDA-MB-435): 14.9 nM | TGI (MDA-MB-435): 34.3 nM | GI50 (MOLT-4 leukemia): 12.3 nM | TGI (MOLT-4 leukemia): 60.7 nM | GI50 (NCI-H226 lung): 13.2 nM | GI50 (NCI-H23 lung): 12.5 nM | TGI (NCI-H23 lung): 66.1 nM | GI50 (NCI-H460 lung): 12 nM | TGI (NCI-H460 lung): > 33300 nM | GI50 (NCI-H522 lung): 8.77 nM | TGI (NCI-H522 lung): 32.1 nM | GI50 (NCI/ADR-RES ovarian): 433 nM | TGI (NCI/ADR-RES ovarian): > 33300 nM | GI50 (OVCAR-3 ovarian): 13.1 nM | TGI (OVCAR-3 ovarian): 67.3 nM | GI50 (OVCAR-4 ovarian): 24.5 nM | TGI (OVCAR-4 ovarian): 10800 nM | GI50 (OVCAR-5 ovarian): 23.4 nM | TGI (OVCAR-5 ovarian): > 33300 nM | GI50 (OVCAR-8 ovarian): 13.2 nM | TGI (OVCAR-8 ovarian): > 33300 nM | GI50 (PC-3 prostate): < 14.2 nM | TGI (PC-3 prostate): > 22600 nM | GI50 (RPMI-8226 leukemia): 10.6 nM | TGI (RPMI-8226 leukemia): 206 nM | GI50 (RXF 393 renal): 25.2 nM | TGI (RXF 393 renal): 103 nM | GI50 (SF-268 CNS): 13.7 nM | TGI (SF-268 CNS): 138 nM | GI50 (SF-295 CNS): 11 nM | GI50 (SF-539 CNS): 9.76 nM | TGI (SF-539 CNS): 27.4 nM | GI50 (SK-MEL-2 melanoma): 9.27 nM | TGI (SK-MEL-2 melanoma): 27.5 nM | GI50 (SK-MEL-28 melanoma): 10.6 nM | TGI (SK-MEL-28 melanoma): 52.8 nM | GI50 (SN12C renal): 13.8 nM | TGI (SN12C renal): > 33300 nM | GI50 (SNB-19 CNS): 10.5 nM | TGI (SNB-19 CNS): > 33300 nM | GI50 (SNB-75 CNS): 6.78 nM | TGI (SNB-75 CNS): 20 nM | GI50 (SR leukemia): 9.1 nM | TGI (SR leukemia): 64.5 nM | GI50 (SW-620 colon): 15.5 nM | TGI (SW-620 colon): > 33300 nM | GI50 (T-47D breast): 12 nM | TGI (T-47D breast): 79.1 nM | GI50 (TK-10 renal): 20.4 nM | TGI (TK-10 renal): 75.8 nM | GI50 (U251 CNS): < 10.6 nM | TGI (U251 CNS): > 33300 nM | GI50 (UACC-257 melanoma): 10.7 nM | TGI (UACC-257 melanoma): 41.4 nM | GI50 (UACC-62 melanoma): 7.19 nM | TGI (UACC-62 melanoma): 16.7 nM | GI50 (UO-31 renal): < 20 nM
